From PubChem BioAssay AID1259408 (Genetic Toxicology Data Bank (GENE-TOX), 2018)
Calls of active or inactive are those of the source. How the calls were made is not given here.

System: GENE-TOX genotoxicity assays, various organisms and cells
Experiment: GENE-TOX mutagenicity studies
[1] = Species/Cell Type: Neurospora crassa, Assay Type: Aneuploidy, chromosome aberrations, Assay Code: NEN-, Evaluation Type: Evaluation A (Pre-1980)

For `COc1cc2c(c(OC)c1OC)-c1ccc(OC)c(=O)cc1[C@@H](NC(C)=O)CC2`, the mutagenic call (Species/Cell Type: Drosophila melanogaster, Assay Type: Aneuploidy, sex chromosome gain, chromosome aberrations, Assay Code: DAG+F, Evaluation Type: Evaluation A (Pre-1980)) was “active; positive”, the mutagenic call (Species/Cell Type: Drosophila melanogaster, Assay Type: Aneuploidy, whole sex chromosome loss, chromosome aberrations, Assay Code: DAC+F, Evaluation Type: Evaluation A (Pre-1980)) was “active; positive” and the mutagenic call (Species/Cell Type: Glycine max (soybean), Assay Type: Gene mutation, Assay Code: GLM+, Evaluation Type: Evaluation A (Pre-1980)) was “active; positive”. The mutagenic call (Species/Cell Type: Human, Sex: Male, Assay Type: Sperm morphology, Assay Code: SPHT, Evaluation Type: Evaluation A (Pre-1980)) was “no conclusion”, the mutagenic call (Species/Cell Type: Mammalian cell culture, nonhuman, Assay Type: Micronucleus test in vitro, chromosome aberrations, Assay Code: MN&+, Evaluation Type: Evaluation A (Pre-1980)) was “active; positive” and the mutagenic call (Species/Cell Type: Mammalian polychromatic erythrocytes, Assay Type: Micronucleus test, chromosome aberrations, Assay Code: MNT+, Evaluation Type: Evaluation B (Post-1980)) was “active; positive”. For the same compound, the mutagenic call (Species/Cell Type: Mammalian polychromatic erythrocytes, Assay Type: Micronucleus test, chromosome aberrations, Assay Code: MNTT, Evaluation Type: Evaluation A (Pre-1980)) was “no conclusion”, the mutagenic call (Species/Cell Type: Mouse, Sex: Male, Assay Type: Sperm morphology, Assay Code: SPI+, Evaluation Type: Evaluation A (Pre-1980)) was “active; positive” and the mutagenic call [1] was “inactive; negative”. The mutagenic call (Species/Cell Type: Nonhuman, Assay Type: Sister-chromatid exchange (SCE) in vivo, Assay Code: SC3-, Evaluation Type: Evaluation B (Post-1980)) was “inactive; negative” and the mutagenic call (Species/Cell Type: Plant, Assay Type: Micronucleus test, chromosome aberrations, Assay Code: MNP+, Evaluation Type: Evaluation A (Pre-1980)) was “active; positive”.
In the case of `Cc1cc(N=Nc2ccc(S(=O)(=O)O)cc2)c(N)cc1N`, the mutagenic call (Species/Cell Type: Salmonella typhimurium (one or more of the five standard strains: TA98, TA100, TA1535, TA1537, and TA1538), Assay Type: Histidine reverse gene mutation, Ames assay, Assay Code: SAL+*, Activation: With metabolic activation, Evaluation Type: Evaluation A (Pre-1980)) is reported as “active; positive”.
With `CS(C)=O` the mutagenic call (Species/Cell Type: Aspergillus nidulans, Assay Type: Aneuploidy, chromosome aberrations, Assay Code: ASN+, Evaluation Type: Evaluation A (Pre-1980)) was “active; positive”, the mutagenic call (Species/Cell Type: Aspergillus nidulans, Assay Type: Mitotic recombination, Assay Code: ASGT, Evaluation Type: Evaluation A (Pre-1980)) was “no conclusion” and the mutagenic call (Species/Cell Type: Bacillus subtilis (H17 vs M45), Assay Type: Rec-assay, spot test, DNA effects (bacterial DNA repair), Assay Code: REWT, Evaluation Type: Evaluation A (Pre-1980)) was “no conclusion”. For the same compound, the mutagenic call (Species/Cell Type: Drosophila melanogaster, Assay Type: Aneuploidy, whole sex chromosome loss, chromosome aberrations, Assay Code: DAC-M, Evaluation Type: Evaluation A (Pre-1980)) was “inactive; negative”, the mutagenic call (Species/Cell Type: Drosophila melanogaster, Assay Type: Sex-linked recessive lethal gene mutation, Assay Code: SRL-, Evaluation Type: Evaluation A (Pre-1980)) was “inactive; negative” and the mutagenic call (Species/Cell Type: Drosophila melanogaster, Sex: Male, Assay Type: Heritable translocation test, chromosome aberrations, Assay Code: DHTT, Evaluation Type: Evaluation A (Pre-1980)) was “no conclusion”. The mutagenic call (Species/Cell Type: Escherichia coli polA (W3110 vs P3478), Assay Type: Rec-assay, DNA effects (bacterial DNA repair), Assay Code: RE2-, Evaluation Type: Evaluation A (Pre-1980)) was “inactive; negative”, the mutagenic call (Species/Cell Type: Escherichia coli polA (W3119 vs P3478), Assay Type: Rec-assay, DNA effects (bacterial DNA repair), Assay Code: RE1T, Evaluation Type: Evaluation A (Pre-1980)) was “no conclusion” and the mutagenic call (Species/Cell Type: Fischer rat embryo (RLV/1706) cells, Assay Type: Cell transformation, viral enhanced, Assay Code: CTR-, Evaluation Type: Evaluation A (Pre-1980)) was “inactive; negative”. The mutagenic call (Species/Cell Type: Human lymphocytes, Assay Type: Sister-chromatid exchange (SCE) in vitro, Assay Code: SCLT, Evaluation Type: Evaluation B (Post-1980)) was “no conclusion”, the mutagenic call (Species/Cell Type: Human, Assay Type: Sister-chromatid exchange (SCE) in vitro, Assay Code: SC1T, Evaluation Type: Evaluation B (Post-1980)) was “no conclusion” and the mutagenic call (Species/Cell Type: Mouse embryo (AKR/ME) cells, Assay Type: Cell transformation, Assay Code: CTK-, Evaluation Type: Evaluation A (Pre-1980)) was “inactive; negative”. The mutagenic call [1] was “inactive; negative”, the call (Species/Cell Type: Nonhuman, Assay Type: In vivo carcinogenicity studies, Assay Code: CCGT, Evaluation Type: Evaluation A (Pre-1980)) was “no conclusion” and the mutagenic call (Species/Cell Type: Nonhuman, Assay Type: Sister-chromatid exchange (SCE) in vitro, Assay Code: SC2-, Evaluation Type: Evaluation A (Pre-1980)) was “inactive; negative”. For the same compound, the mutagenic call (Species/Cell Type: Nonhuman, Assay Type: Sister-chromatid exchange (SCE) in vivo, Assay Code: SC3+, Evaluation Type: Evaluation B (Post-1980)) was “active; positive”, the mutagenic call (Species/Cell Type: Rodents, Sex: Male, Assay Type: Dominant lethal test, Assay Code: DLTT, Evaluation Type: Evaluation A (Pre-1980)) was “no conclusion” and the mutagenic call (Species/Cell Type: Saccharomyces cerevisiae, Assay Type: Mitotic recombination or gene conversion, Assay Code: YEC+, Evaluation Type: Evaluation A (Pre-1980)) was “active; positive”. The mutagenic call (Species/Cell Type: Salmonella typhimurium (one or more of the five standard strains: TA98, TA100, TA1535, TA1537, and TA1538), Assay Type: Histidine reverse gene mutation, Ames assay, Assay Code: SAL-, Evaluation Type: Evaluation A (Pre-1980)) was “inactive; negative”, the mutagenic call (Species/Cell Type: Salmonella typhimurium, Assay Type: Forward and reverse gene mutation, host-mediated assay, Assay Code: HMA-, Evaluation Type: Evaluation A (Pre-1980)) was “inactive; negative” and the mutagenic call (Species/Cell Type: Syrian hamster embryo (SHE) cells, Assay Type: Cell transformation, clonal assay, Assay Code: CTC-, Evaluation Type: Evaluation A (Pre-1980)) was “inactive; negative”.
